From patent US9648878B2, “Herbicidal agents containing flufenacet” (BAYER CROPSCIENCE AG, priority 2012, dated 2017)

Experiments:
[1] = system: LOLSS resistant to HRAC group A; test: Greenhouse post-emergence herbicidal action on resistant Lolium biotype (HRAC group A resistant); type: in vivo, Lolium spp.; settings: post-emergence (PO, BBCH 11); dose g of AS/ha: flufenacet 60, aclonifen 150, diflufenican 37.5, (A)+(B)+(C) 60+150+37.5, pinoxaden+cloquintocet-mexyl 60+15, mesosulfuron+iodosulfuron+mefenpyr 15+3+45
Method: (§1) In the standard implementation of the test, seeds of various broad-leaved weed and weed grass biotypes (origins) were sown in an 8-13 cm diameter pot filled with natural soil of a standard field soil (loamy silt; non-sterile) and covered with a covering soil layer of about 1 cm. The pots were then cultivated in a greenhouse (12-16 h light, temperature day 20-22° C., night 15-18° C.) until the time of application. The pots were treated on a laboratory track sprayer with spray liquors comprising the compositions according to the invention, mixtures of the prior art or the components applied individually. Application of the active compounds or active compound combinations formulated as WG, WP, EC or otherwise was carried out at the appropriate growth stages of the plants. The amount of water used for spray application was 100-600 I/ha. After the treatment, the plants were returned to the greenhouses.
(§2) About 3 weeks after the application, the soil action or/and foliar action was assessed visually according to a scale of 0-100% in comparison to an untreated comparative group: 0%=no noticable effect compared to the untreated comparative group; 100%=full effect compared to the untreated comparative group.
(§3) 2. Post-emergence action against weeds: seeds of various broad-leaved weed and weed grass biotypes (origins) were sown in an 8-13 cm diameter pot filled with natural soil of a standard field soil (loamy silt; non-sterile) and covered with a covering soil layer of about 1 cm. […]
(§4) Insofar as herbicidal effects of the compositions according to the invention compared to mixtures of the prior art or compared to components applied individually against economically important mono- and dicotyledonous harmful plants were the center of attention, the synergistic herbicidal activities were calculated using Colby's formula (cf. S. R. Colby; Weeds 15 (1967), 20-22): E^C=(A+B+C)−(A×B+A×C+B×C)/100+(A×B×C)/10000 […]
(§5) Δ=difference (%) of the measured value (%) to the expected value (%) (measured value minus expected value) […]

[2] = system: LOLSS resistant to HRAC group B; test: Greenhouse post-emergence herbicidal action on resistant Lolium biotype (HRAC group B resistant); type: in vivo, Lolium spp.; settings: post-emergence (PO, BBCH 11); dose g of AS/ha: flufenacet 60, aclonifen 150, diflufenican 37.5, (A)+(B)+(C) 60+150+37.5, pinoxaden+cloquintocet-mexyl 60+15, mesosulfuron+iodosulfuron+mefenpyr 15+3+45
Method: as §1, §2, §3, §4, §5

Compound | herbicidal effect (visual score 0-100% vs untreated), LOLSS resistant to HRAC group A [1] [%] | herbicidal effect (visual score 0-100% vs untreated), LOLSS resistant to HRAC group B [2] [%]
Nc1c([N+](=O)[O-])ccc(Oc2ccccc2)c1Cl [aclonifen (B), 2-chloro-6-nitro-3-phenoxybenzenamine] | 5 | 38
O=C(Nc1ccc(F)cc1F)c1cccnc1Oc1cccc(C(F)(F)F)c1 [diflufenican (C), N-(2,4-difluorophenyl)-2-[3-(trifluoromethyl)phenoxy]-3-pyridinecarboxamide] | 23 | 35
CC(C)N(C(=O)COc1nnc(C(F)(F)F)s1)c1ccc(F)cc1 [flufenacet (A), N-(4-fluorophenyl)-N-(1-methylethyl)-2-[[5-(trifluoromethyl)-1,3,4-thiadiazol-2-yl]oxy]acetamide] | 18 | 60
